Read-outs that look alike come from different tables or passages of the source.
Test system: dengue serotype 2
Assay: Antiviral assay (dengue serotype 2), CPE inhibition in Vero cells with ATPLite luminescence readout
Assay type: cell-based, dengue virus
Description: 3. Antiviral assays (dengue serotype 2)
15 μl of Vero cells (1500 cells/well) were added to a 384-well white plate containing 10 μl of four-fold serially diluted testing compound in cell culture medium with 2% FCS. 15 μl of virus stock was then added to each well at a MOI of 0.1. Cell controls received only cells and medium, while virus controls received virus but no test compound. Plates were incubated at 37° C. until the viral CPE in the virus control wells reached ˜100% (5-6 days). ATPLite (Perkin Elmer) was added to all wells according to the supplier's instructions. Briefly, 40 μl of the reconstituted lyophilized substrate solution was added to each well. The plate was shaken at 700 rpm for 2 minutes and the luminescence was measured using a Viewlux apparatus (Perkin Elmer) by taking a 0.1-0.5-second integrated reading of each test plate. The results were expressed as EC50 values defined as the concentration of compound achieving 50% inhibition of the virus-reduced luminescence signals as compared with the uninfected cell control. The signal-to-noise ratio of an assay is the ratio between the mean luminescent signals of the cell controls and the virus controls. The dynamic range is defined as the ratio between the signals at the last (maximal signal) and first point in the linear range of the dose-response curve.
Intra-assay reproducibility was measured by performing each experiment in three identical plates with each concentration of drug in triplicate. Inter-assay reproducibility was measured by performing three independent experiments at different times under the same experimental conditions.

[1] = Dengue virus, Vero, accuracy of the assay, value ± spread over many measurements (# data 42-54), read-out: EC50
[2] = Dengue virus, Vero cells 1500 cells/well, MOI 0.1, 5-6 days, ATPLite, Exp. # 1, read-out: EC50 (μM) Exp. # 1
[3] = Dengue virus, Vero cells 1500 cells/well, MOI 0.1, 5-6 days, ATPLite, Exp. # 2, read-out: EC50 (μM) Exp. # 2
[4] = Dengue virus, Vero cells 1500 cells/well, MOI 0.1, 5-6 days, ATPLite, Exp. # 3, read-out: EC50 (μM) Exp. # 3
[5] = Dengue virus, Vero cells 1500 cells/well, MOI 0.1, 5-6 days, ATPLite, Exp. # 4, read-out: EC50 (μM) Exp. # 4
[6] = Dengue virus, Vero cells 1500 cells/well, MOI 0.1, 5-6 days, ATPLite, Exp. # 5, read-out: EC50 (μM) Exp. # 5
[7] = Dengue virus, Vero cells 1500 cells/well, MOI 0.1, 5-6 days, ATPLite, Exp. # 6, read-out: EC50 (μM) Exp. # 6
[8] = Dengue virus, Vero cells 1500 cells/well, MOI 0.1, 5-6 days, ATPLite, Exp. # 7, read-out: EC50 (μM) Exp. # 7

Compound | EC50 [1] | EC50 [2] | EC50 [3] | EC50 [4] | EC50 [5] | EC50 [6] | EC50 [7] | EC50 [8] | EC50 (accuracy of the assay, value ± spread over 30 measurements)
C[C@@]1(O)[C@H](O)[C@@H](CO)O[C@H]1n1ccc(N)nc1=O [2′-C-methylcytidine] | 12.6 ± 3.32 µM | 13.5 µM | 14.6 µM | 10.3 µM | 10.4 µM | 6.73 µM | 14 µM | 17.4 µM | –
O=c1cnn([C@@H]2O[C@H](CO)[C@@H](O)[C@H]2O)c(=O)[nH]1 [6-Azauridine] | 4.53 ± 0.83 µM | 5.52 µM | 4.85 µM | 3.74 µM | 4.26 µM | 4.6 µM | 3.81 µM | 5.14 µM | –
NC(=O)c1ncn([C@@H]2O[C@H](CO)[C@@H](O)[C@H]2O)n1 [Ribavirin] | 53 ± 10.2 µM | 52 µM | 53.8 µM | 43.8 µM | 42.4 µM | 47.7 µM | 69 µM | 67.5 µM | –
Interferon-α | – | – | – | – | – | – | – | – | 861.2 IU/ml ± 427.11
